Test results taken from publication PMC11062922 (Nature Chemical Biology, 2023).

How the values were obtained:
[1] = target: T1, PRKX (Homo sapiens, UniProt P51817); assay: Kinobeads full dose-response competition binding: PRKX; settings: Gene Name PRKX; for Relative Intensity 0.3nM: 0.3nM compound; for Relative Intensity 0.3nM / Relative Intensity 1nM / Relative Intensity 3nM / Relative Intensity 10nM / Relative Intensity 30nM / Relative Intensity 100nM / Relative Intensity 300nM / Relative Intensity 1000nM: DMSO = 1; for Relative Intensity 1nM: 1nM compound; for Relative Intensity 3nM: 3nM compound; for Relative Intensity 10nM: 10nM compound; for Relative Intensity 30nM: 30nM compound; for Relative Intensity 100nM: 100nM compound; for Relative Intensity 300nM: 300nM compound; for Relative Intensity 1000nM: 1000nM compound; for Kd: EC50 with Correction, read-out: apparent Kd; for Kd / EC50: doses in nM; for EC50: eight-dose curve fit
T1 construct: endogenous in cells
T1 sequence (P51817 1-358): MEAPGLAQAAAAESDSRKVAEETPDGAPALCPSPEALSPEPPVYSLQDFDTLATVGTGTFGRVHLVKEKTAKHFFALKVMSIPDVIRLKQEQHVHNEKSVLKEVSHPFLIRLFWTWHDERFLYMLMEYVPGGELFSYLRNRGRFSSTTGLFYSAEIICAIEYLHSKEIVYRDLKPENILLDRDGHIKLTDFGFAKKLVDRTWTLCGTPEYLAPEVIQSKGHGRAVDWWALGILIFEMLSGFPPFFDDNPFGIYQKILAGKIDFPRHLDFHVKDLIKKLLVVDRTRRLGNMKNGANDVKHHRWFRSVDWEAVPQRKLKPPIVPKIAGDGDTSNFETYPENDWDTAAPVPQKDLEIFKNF

[2] = target: T2, PKN1 (Homo sapiens, UniProt Q16512); assay: Kinobeads full dose-response competition binding: PKN1; settings: Gene Name PKN1; for Relative Intensity 0.3nM: 0.3nM compound; for Relative Intensity 0.3nM / Relative Intensity 1nM / Relative Intensity 3nM / Relative Intensity 10nM / Relative Intensity 30nM / Relative Intensity 100nM / Relative Intensity 300nM / Relative Intensity 1000nM: DMSO = 1; for Relative Intensity 1nM: 1nM compound; for Relative Intensity 3nM: 3nM compound; for Relative Intensity 10nM: 10nM compound; for Relative Intensity 30nM: 30nM compound; for Relative Intensity 100nM: 100nM compound; for Relative Intensity 300nM: 300nM compound; for Relative Intensity 1000nM: 1000nM compound
T2 construct: a mixture of lysates from five cancer cell lines; endogenous in cells
T2 sequence (Q16512 whole entry): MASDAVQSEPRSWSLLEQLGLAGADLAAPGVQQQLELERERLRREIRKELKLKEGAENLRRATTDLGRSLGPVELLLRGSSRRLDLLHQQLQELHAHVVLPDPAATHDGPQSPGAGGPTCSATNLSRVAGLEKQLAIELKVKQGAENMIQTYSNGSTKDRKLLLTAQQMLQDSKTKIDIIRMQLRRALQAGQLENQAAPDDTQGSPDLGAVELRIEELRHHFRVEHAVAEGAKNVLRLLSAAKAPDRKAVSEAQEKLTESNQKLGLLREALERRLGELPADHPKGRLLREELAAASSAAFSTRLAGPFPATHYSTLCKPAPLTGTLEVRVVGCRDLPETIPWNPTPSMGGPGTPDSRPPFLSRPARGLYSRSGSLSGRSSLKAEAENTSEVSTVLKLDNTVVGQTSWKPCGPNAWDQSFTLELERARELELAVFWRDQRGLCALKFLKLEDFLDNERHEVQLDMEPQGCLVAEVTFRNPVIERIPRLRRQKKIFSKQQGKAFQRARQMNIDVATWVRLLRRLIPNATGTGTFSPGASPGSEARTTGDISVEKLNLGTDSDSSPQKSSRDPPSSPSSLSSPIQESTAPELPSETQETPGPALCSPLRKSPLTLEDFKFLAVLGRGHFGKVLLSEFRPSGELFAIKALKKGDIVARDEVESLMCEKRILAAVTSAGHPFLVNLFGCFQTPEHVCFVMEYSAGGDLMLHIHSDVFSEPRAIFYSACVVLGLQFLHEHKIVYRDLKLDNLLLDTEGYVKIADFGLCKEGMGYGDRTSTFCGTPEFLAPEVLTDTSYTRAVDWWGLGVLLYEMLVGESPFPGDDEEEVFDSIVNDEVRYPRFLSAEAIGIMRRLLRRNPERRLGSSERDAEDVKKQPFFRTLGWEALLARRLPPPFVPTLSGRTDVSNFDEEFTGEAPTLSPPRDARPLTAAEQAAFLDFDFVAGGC

[3] = target: T3, GSK3A (Homo sapiens, UniProt P49840); assay: Kinobeads full dose-response competition binding: GSK3A; settings: Gene Name GSK3A; for Relative Intensity 0.3nM: 0.3nM compound; for Relative Intensity 0.3nM / Relative Intensity 1nM / Relative Intensity 3nM / Relative Intensity 10nM / Relative Intensity 30nM / Relative Intensity 100nM / Relative Intensity 300nM / Relative Intensity 1000nM: DMSO = 1; for Relative Intensity 1nM: 1nM compound; for Relative Intensity 3nM: 3nM compound; for Relative Intensity 10nM: 10nM compound; for Relative Intensity 30nM: 30nM compound; for Relative Intensity 100nM: 100nM compound; for Relative Intensity 300nM: 300nM compound; for Relative Intensity 1000nM: 1000nM compound; for Kd: EC50 with Correction, read-out: apparent Kd; for Kd / EC50: doses in nM; for EC50: eight-dose curve fit
T3 construct: endogenous in cells
T3 sequence (P49840 whole entry): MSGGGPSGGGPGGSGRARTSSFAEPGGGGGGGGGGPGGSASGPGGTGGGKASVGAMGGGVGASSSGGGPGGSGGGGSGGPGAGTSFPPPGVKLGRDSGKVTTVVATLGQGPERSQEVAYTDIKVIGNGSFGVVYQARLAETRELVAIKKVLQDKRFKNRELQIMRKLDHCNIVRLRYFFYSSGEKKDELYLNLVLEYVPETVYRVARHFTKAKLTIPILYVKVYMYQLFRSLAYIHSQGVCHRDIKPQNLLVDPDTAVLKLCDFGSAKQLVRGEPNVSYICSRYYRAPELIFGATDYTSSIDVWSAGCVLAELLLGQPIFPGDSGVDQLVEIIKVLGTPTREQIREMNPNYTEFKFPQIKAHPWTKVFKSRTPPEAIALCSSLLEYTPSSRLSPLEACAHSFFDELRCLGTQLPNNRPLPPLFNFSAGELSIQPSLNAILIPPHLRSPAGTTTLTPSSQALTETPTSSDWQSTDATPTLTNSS

[4] = target: T4, LATS1 (Homo sapiens, UniProt O95835); assay: Kinobeads full dose-response competition binding: LATS1; settings: Gene Name LATS1; for Relative Intensity 0.3nM: 0.3nM compound; for Relative Intensity 0.3nM / Relative Intensity 1nM / Relative Intensity 3nM / Relative Intensity 10nM / Relative Intensity 30nM / Relative Intensity 100nM / Relative Intensity 300nM / Relative Intensity 1000nM: DMSO = 1; for Relative Intensity 1nM: 1nM compound; for Relative Intensity 3nM: 3nM compound; for Relative Intensity 10nM: 10nM compound; for Relative Intensity 30nM: 30nM compound; for Relative Intensity 100nM: 100nM compound; for Relative Intensity 300nM: 300nM compound; for Relative Intensity 1000nM: 1000nM compound; for Kd: EC50 with Correction, read-out: apparent Kd; for Kd / EC50: doses in nM; for EC50: eight-dose curve fit
T4 construct: endogenous in cells
T4 sequence (O95835 1-1130): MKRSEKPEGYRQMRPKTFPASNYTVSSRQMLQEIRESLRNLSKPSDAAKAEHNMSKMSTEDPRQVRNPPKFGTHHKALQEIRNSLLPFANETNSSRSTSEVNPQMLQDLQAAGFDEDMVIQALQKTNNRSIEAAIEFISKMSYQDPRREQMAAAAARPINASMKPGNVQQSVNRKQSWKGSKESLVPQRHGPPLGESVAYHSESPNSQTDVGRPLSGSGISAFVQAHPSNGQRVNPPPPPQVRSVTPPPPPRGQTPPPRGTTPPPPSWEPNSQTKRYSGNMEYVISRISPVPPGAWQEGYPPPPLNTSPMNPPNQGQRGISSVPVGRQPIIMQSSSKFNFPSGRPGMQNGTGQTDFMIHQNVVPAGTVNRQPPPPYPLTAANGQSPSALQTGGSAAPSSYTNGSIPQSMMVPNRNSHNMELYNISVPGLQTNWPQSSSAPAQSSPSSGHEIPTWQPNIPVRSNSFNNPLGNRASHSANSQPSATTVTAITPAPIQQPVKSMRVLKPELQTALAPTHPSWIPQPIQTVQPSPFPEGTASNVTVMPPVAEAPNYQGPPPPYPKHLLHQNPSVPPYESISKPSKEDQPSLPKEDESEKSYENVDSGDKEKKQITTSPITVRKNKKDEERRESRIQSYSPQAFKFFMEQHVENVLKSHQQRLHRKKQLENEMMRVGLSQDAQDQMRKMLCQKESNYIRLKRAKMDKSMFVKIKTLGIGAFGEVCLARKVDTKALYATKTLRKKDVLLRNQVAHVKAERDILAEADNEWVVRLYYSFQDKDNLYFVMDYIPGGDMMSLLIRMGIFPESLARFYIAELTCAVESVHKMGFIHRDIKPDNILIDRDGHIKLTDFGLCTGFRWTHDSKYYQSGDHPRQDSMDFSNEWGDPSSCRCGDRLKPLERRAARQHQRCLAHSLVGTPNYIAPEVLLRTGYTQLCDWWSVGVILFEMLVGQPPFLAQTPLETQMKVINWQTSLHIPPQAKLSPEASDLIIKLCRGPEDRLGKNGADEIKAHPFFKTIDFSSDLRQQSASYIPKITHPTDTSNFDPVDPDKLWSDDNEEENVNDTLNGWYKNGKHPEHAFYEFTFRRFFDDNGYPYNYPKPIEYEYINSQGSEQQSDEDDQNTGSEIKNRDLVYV

[5] = target: T5, PAK4 (Homo sapiens, UniProt O96013); assay: Kinobeads full dose-response competition binding: PAK4; settings: Gene Name PAK4; for Relative Intensity 0.3nM: 0.3nM compound; for Relative Intensity 0.3nM / Relative Intensity 1nM / Relative Intensity 3nM / Relative Intensity 10nM / Relative Intensity 30nM / Relative Intensity 100nM / Relative Intensity 300nM / Relative Intensity 1000nM: DMSO = 1; for Relative Intensity 1nM: 1nM compound; for Relative Intensity 3nM: 3nM compound; for Relative Intensity 10nM: 10nM compound; for Relative Intensity 30nM: 30nM compound; for Relative Intensity 100nM: 100nM compound; for Relative Intensity 300nM: 300nM compound; for Relative Intensity 1000nM: 1000nM compound
T5 construct: a mixture of lysates from five cancer cell lines; endogenous in cells
T5 sequence (O96013 whole entry): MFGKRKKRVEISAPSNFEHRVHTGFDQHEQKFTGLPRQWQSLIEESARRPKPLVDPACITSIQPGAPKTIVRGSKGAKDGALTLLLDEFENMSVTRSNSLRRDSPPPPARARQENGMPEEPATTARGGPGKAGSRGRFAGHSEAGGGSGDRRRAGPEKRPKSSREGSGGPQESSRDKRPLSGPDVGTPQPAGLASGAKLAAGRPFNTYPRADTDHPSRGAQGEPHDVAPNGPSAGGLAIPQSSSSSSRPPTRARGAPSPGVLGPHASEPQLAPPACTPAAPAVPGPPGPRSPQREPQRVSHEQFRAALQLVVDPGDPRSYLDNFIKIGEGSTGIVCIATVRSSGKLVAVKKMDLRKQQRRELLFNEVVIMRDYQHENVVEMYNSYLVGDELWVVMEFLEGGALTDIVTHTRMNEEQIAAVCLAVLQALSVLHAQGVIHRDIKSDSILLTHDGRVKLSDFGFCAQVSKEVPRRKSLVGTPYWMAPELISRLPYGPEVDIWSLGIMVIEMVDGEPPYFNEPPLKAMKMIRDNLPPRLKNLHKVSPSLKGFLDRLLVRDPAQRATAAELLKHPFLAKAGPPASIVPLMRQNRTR

[6] = EC50 with Correction, doses in nM, read-out: apparent Kd
[7] = eight-dose curve fit, doses in nM

CCn1c(-c2nonc2N)nc2c(C#CC(C)(C)O)nc(OCCN)cc21 [GSK902056A]
Relative Intensity 0.3nM [1]: 0.9197 | Relative Intensity 1nM [1]: 0.9321 | Relative Intensity 3nM [1]: 1.015 | Relative Intensity 10nM [1]: 0.9379 | Relative Intensity 30nM [1]: 0.8892 | Relative Intensity 100nM [1]: 0.6426 | Relative Intensity 300nM [1]: 0.2553 | Relative Intensity 1000nM [1]: 0.1464 | Kd [1]: 127 nM | EC50 [1]: 127 nM | Relative Intensity 0.3nM [2]: 0.9859 | Relative Intensity 1nM [2]: 1.011 | Relative Intensity 3nM [2]: 0.9965 | Relative Intensity 10nM [2]: 0.9627 | Relative Intensity 30nM [2]: 0.7754 | Relative Intensity 100nM [2]: 0.5397 | Relative Intensity 300nM [2]: 0.2684 | Relative Intensity 1000nM [2]: 0.1427 | Kd [2, 6]: 92.3 nM | EC50 [2, 7]: 92.3 nM | Relative Intensity 0.3nM [3]: 0.9894 | Relative Intensity 1nM [3]: 1.046 | Relative Intensity 3nM [3]: 1.057 | Relative Intensity 10nM [3]: 0.9554 | Relative Intensity 30nM [3]: 0.7994 | Relative Intensity 100nM [3]: 0.6557 | Relative Intensity 300nM [3]: 0.3972 | Relative Intensity 1000nM [3]: 0.1852 | Kd [3]: 164 nM | EC50 [3]: 173 nM | Relative Intensity 0.3nM [4]: 0.9708 | Relative Intensity 1nM [4]: 1.022 | Relative Intensity 3nM [4]: 1.017 | Relative Intensity 10nM [4]: 1.027 | Relative Intensity 30nM [4]: 0.7859 | Relative Intensity 100nM [4]: 0.4584 | Relative Intensity 300nM [4]: 0.1984 | Relative Intensity 1000nM [4]: 0.02738 | Kd [4]: 87.4 nM | EC50 [4]: 87.4 nM | Relative Intensity 0.3nM [5]: 1.05 | Relative Intensity 1nM [5]: 1.027 | Relative Intensity 3nM [5]: 1.044 | Relative Intensity 10nM [5]: 0.9586 | Relative Intensity 30nM [5]: 0.8645 | Relative Intensity 100nM [5]: 0.8782 | Relative Intensity 300nM [5]: 0.7175 | Relative Intensity 1000nM [5]: 0.4475

CCn1c(-c2nonc2N)nc2c(C#CC(C)(C)O)nc(OCCNC)cc21 [GSK949675A]
Relative Intensity 0.3nM [1]: 1.295 | Relative Intensity 1nM [1]: 1.2278 | Relative Intensity 3nM [1]: 1.244 | Relative Intensity 10nM [1]: 1.16 | Relative Intensity 30nM [1]: 1.169 | Relative Intensity 100nM [1]: 0.9393 | Relative Intensity 300nM [1]: 0.5982 | Relative Intensity 1000nM [1]: 0.3002 | Kd [1]: 221 nM | EC50 [1]: 221 nM | Relative Intensity 0.3nM [2]: 1.026 | Relative Intensity 1nM [2]: 1.04 | Relative Intensity 3nM [2]: 1.011 | Relative Intensity 10nM [2]: 0.946 | Relative Intensity 30nM [2]: 0.9307 | Relative Intensity 100nM [2]: 0.9366 | Relative Intensity 300nM [2]: 0.7358 | Relative Intensity 1000nM [2]: 0.4262 | Relative Intensity 0.3nM [3]: 1.008 | Relative Intensity 1nM [3]: 1.091 | Relative Intensity 3nM [3]: 1.095 | Relative Intensity 10nM [3]: 0.9753 | Relative Intensity 30nM [3]: 1.009 | Relative Intensity 100nM [3]: 0.7508 | Relative Intensity 300nM [3]: 0.4472 | Relative Intensity 1000nM [3]: 0.237 | Kd [3]: 104 nM | EC50 [3]: 167 nM | Relative Intensity 0.3nM [4]: 1.0287 | Relative Intensity 1nM [4]: 1.07 | Relative Intensity 3nM [4]: 1.096 | Relative Intensity 10nM [4]: 1.105 | Relative Intensity 30nM [4]: 1.087 | Relative Intensity 100nM [4]: 0.897 | Relative Intensity 300nM [4]: 0.6219 | Relative Intensity 1000nM [4]: 0.3635 | Kd [4]: 238 nM | EC50 [4]: 238 nM | Relative Intensity 0.3nM [5]: 1.024 | Relative Intensity 1nM [5]: 1.092 | Relative Intensity 3nM [5]: 1.039 | Relative Intensity 10nM [5]: 0.9797 | Relative Intensity 30nM [5]: 0.9918 | Relative Intensity 100nM [5]: 0.907 | Relative Intensity 300nM [5]: 0.6926 | Relative Intensity 1000nM [5]: 0.4818 | Kd [5, 6]: 218 nM | EC50 [5, 7]: 316 nM
